# Results taken from patent publication US20020061888A1, “Combination therapy for the prophylaxis and treatment of hyperlipidemic conditions and disorders” (priority 2000, published 2002).
# Where “and” joins values, the source holds several entries; their conditions need not be identical. Identical values can stand only once. Marks after values point to notes of the source that are not given here.
# Tests used:
# Male beagle dogs [1] = experiment: Serum total cholesterol in beagle dogs (serum lipid measurements); assay type: in vivo; details: for SERUM TOTAL CHOLESTEROL / TOTAL SERUM CHOLESTEROL: n = 6; for decrease in serum total cholesterol concentration: compared to vehicle
# Procedure: (§1) Male beagle dogs (9-10 kg) obtained from Marshall farms were fed a normal chow diet once a day for a two hour interval and given water ad libitum. Prior to initiating treatment, the dogs were weighed and blood samples were drawn from the cephalic vein of each dog following an overnight fast to evaluate pretreatment serum total cholesterol levels at the start of the study. […] All doses were administered in gelatin capsules per os to each dog between 9:00-9:30 a.m. prior to feeding. All animals were fed between 9:30-10:00 a.m. and were allowed two hours to eat, at which time any remaining food was removed. […] Animals were dosed daily for three weeks and blood samples were taken at the end of each week after an overnight fast for comparison with pretreatment serum total cholesterol levels. Three consecutive 24 hour fecal samples were collected for each group during the last 72 hours of each week and used to measure the concentration of fecal biles acids excreted during that time period.
# Blood was collected from the cephalic vein of each dog into serum separator tubes. The blood was centrifuged at 900×g for 20 minutes at room temperature and the serum decanted. All analyses were performed on a Cobas Mira Clinical Analyzer System (Roche Diagnostic Systems, Branchburg, N.J.) using Roche Diagnostic reagents for enzymatic determinations of serum cholesterol. Commercial calibrator and quality control materials were analyzed with each run to verify assay accuracy and precision. A two-tailed, paired Students t-test was used to determine the statistical significance of changes in serum total cholesterol in treated dogs compared to pretreatment values. A one-way analysis of variance (“ANOVA”) was used to compare each pair of treatment groups to determine the statistical significance of changes in serum total cholesterol.
# Beagle dogs also were administered pravastatin to evaluate the monotherapeutic effect of pravastatin on serum total cholesterol.
# Male beagle dogs (9-10 kg) obtained from Marshall farms were fed once a day for two hours and given water ad libitum. Prior to initiating treatment, blood samples were drawn from the cephalic vein of each dog to evaluate pretreatment total serum cholesterol levels at the start of the study.
# For the dose ranging study, the dogs were assigned to one of five groups based on mean body weights and serum total cholesterol levels. Each group received one of the following dosages: (1) vehicle (empty capsule, afternoon dosing), (2) 3.0 mg/kg/day pravastatin (afternoon dosing), (3) 10 mg/kg/day pravastatin (afternoon dosing), (4) 30 mg/kg/day pravastatin (afternoon dosing), and (5) 10 mg/kg/day pravastatin (morning dosing). One capsule containing pravastatin was administered per os to each dog between 9:00-9:30 a.m. prior to feeding for the 10 mg/kg/day morning dosing group and between 2:30-3:00 p.m. for the afternoon dosing groups. All animals were fed between 9:30-10:00 a.m. and were allowed two hours to eat, at which time any remaining food was removed. […] Animals were dosed daily for four weeks and blood samples were taken at the end of each week after an overnight fast for comparison with pretreatment serum total cholesterol levels.
# (§2) Following this initial four week dose-ranging study, dogs from the two groups receiving 10 mg/kg/day pravastatin (a.m. and p.m. dosing groups) were randomized into two new treatment groups based on serum total cholesterol levels to initiate the combination treatment study. […] Dosing continued in this manner for an additional four weeks (Weeks 5-8) with blood and 48-hour fecal samples collected at the end of each week for serum lipid measurements and fecal bile acid determinations, respectively.
# Male beagle dogs [2] = experiment: Body or fecal weights, stool consistency, general animal health of treated beagle dogs; assay type: in vivo; details: any of the groups
# Procedure: as §1
# as §2, with “respectively. […] At the end of this three-week period, pravastatin dosing and all empty capsule dosing were discontinued and blood samples were collected weekly for a final three weeks (weeks 12-14) to monitor the return of serum total cholesterol levels back to baseline.” for “respectively.”
# Male beagle dogs (9-10 kg) obtained from Marshall farms were fed once a day for two hours and given water ad libitum.
smiles,measurement,setting,value
CCCCC1(CC)CS(=O)(=O)c2ccc(N(C)C)cc2[C@@H](c2cccc(OCc3ccc(C[N+]45CCN(CC4)CC5)cc3)c2)[C@H]1O.[Cl-] (some centres unmarked) [Compound A-5],% change in serum total cholesterol compared to the pretreatment value of each group,"Male beagle dogs [1]; compound A-5 0.22 mg/kg/day per os, Week 1",(−9) %
same,SERUM TOTAL CHOLESTEROL,"Male beagle dogs [1]; compound A-5 0.22 mg/kg/day per os, Week 1, mean ± SEM",140 ± 10^3 mg/dL
same,% change in serum total cholesterol compared to the pretreatment value of each group,"Male beagle dogs [1]; compound A-5 0.22 mg/kg/day per os, Week 2",(−7) %
same,SERUM TOTAL CHOLESTEROL,"Male beagle dogs [1]; compound A-5 0.22 mg/kg/day per os, Week 2, mean ± SEM",143 ± 11 mg/dL
same,% change in serum total cholesterol compared to the pretreatment value of each group,"Male beagle dogs [1]; compound A-5 0.22 mg/kg/day per os, Week 3",(−10) %
same,SERUM TOTAL CHOLESTEROL,"Male beagle dogs [1]; compound A-5 0.22 mg/kg/day per os, Week 3, mean ± SEM",138 ± 11^3 mg/dL
same,decrease in serum total cholesterol concentration,"Male beagle dogs [1]; compound A-5 0.22 mg/kg/day, one week of treatment",9%
same,decrease in serum total cholesterol concentration,"Male beagle dogs [1]; compound A-5 0.22 mg/kg/day, three weeks of treatment",10%
same,% change in serum total cholesterol compared to the pretreatment value of each group,"Male beagle dogs [1]; compound A-5 0.66 mg/kg/day per os, Week 1",(−7) %
same,SERUM TOTAL CHOLESTEROL,"Male beagle dogs [1]; compound A-5 0.66 mg/kg/day per os, Week 1, mean ± SEM",145 ± 9 mg/dL
same,% change in serum total cholesterol compared to the pretreatment value of each group,"Male beagle dogs [1]; compound A-5 0.66 mg/kg/day per os, Week 2",(−4) %
same,SERUM TOTAL CHOLESTEROL,"Male beagle dogs [1]; compound A-5 0.66 mg/kg/day per os, Week 2, mean ± SEM",149 ± 8 mg/dL
same,% change in serum total cholesterol compared to the pretreatment value of each group,"Male beagle dogs [1]; compound A-5 0.66 mg/kg/day per os, Week 3",(−6) %
same,SERUM TOTAL CHOLESTEROL,"Male beagle dogs [1]; compound A-5 0.66 mg/kg/day per os, Week 3, mean ± SEM",146 ± 8 mg/dL
same,decrease in serum total cholesterol concentration,"Male beagle dogs [1]; compound A-5 0.66 mg/kg/day, one week of treatment",7%
same,decrease in serum total cholesterol concentration,"Male beagle dogs [1]; compound A-5 0.66 mg/kg/day, three weeks of treatment",6%
same,% change in serum total cholesterol compared to the pretreatment value of each group,"Male beagle dogs [1]; compound A-5 2.0 mg/kg/day per os, Week 1",(−12) %
same,SERUM TOTAL CHOLESTEROL,"Male beagle dogs [1]; compound A-5 2.0 mg/kg/day per os, Week 1, mean ± SEM",137 ± 10^3 mg/dL
same,% change in serum total cholesterol compared to the pretreatment value of each group,"Male beagle dogs [1]; compound A-5 2.0 mg/kg/day per os, Week 2",(−15) %
same,SERUM TOTAL CHOLESTEROL,"Male beagle dogs [1]; compound A-5 2.0 mg/kg/day per os, Week 2, mean ± SEM",133 ± 11^3 mg/dL
same,% change in serum total cholesterol compared to the pretreatment value of each group,"Male beagle dogs [1]; compound A-5 2.0 mg/kg/day per os, Week 3",(−13) %
same,SERUM TOTAL CHOLESTEROL,"Male beagle dogs [1]; compound A-5 2.0 mg/kg/day per os, Week 3, mean ± SEM",136 ± 10^3 mg/dL
same,decrease in serum total cholesterol concentration,"Male beagle dogs [1]; compound A-5 2.0 mg/kg/day, one week of treatment",12%
same,decrease in serum total cholesterol concentration,"Male beagle dogs [1]; compound A-5 2.0 mg/kg/day, three weeks of treatment",13%
same,decrease in serum total cholesterol compared to the initial value at Week 0,"Male beagle dogs [1]; compound A-5 4 mg/kg/day for four weeks (beginning after Week 4), Week 8",23%
same,% change in serum total cholesterol compared to the pretreatment value of each group,"Male beagle dogs [1]; compound A-5 6.0 mg/kg/day per os, Week 1",(−19) %
same,SERUM TOTAL CHOLESTEROL,"Male beagle dogs [1]; compound A-5 6.0 mg/kg/day per os, Week 1, mean ± SEM",128 ± 11^3 mg/dL
same,% change in serum total cholesterol compared to the pretreatment value of each group,"Male beagle dogs [1]; compound A-5 6.0 mg/kg/day per os, Week 2",(−22) %
same,SERUM TOTAL CHOLESTEROL,"Male beagle dogs [1]; compound A-5 6.0 mg/kg/day per os, Week 2, mean ± SEM",124 ± 11^3 mg/dL
same,% change in serum total cholesterol compared to the pretreatment value of each group,"Male beagle dogs [1]; compound A-5 6.0 mg/kg/day per os, Week 3",(−24) %
same,SERUM TOTAL CHOLESTEROL,"Male beagle dogs [1]; compound A-5 6.0 mg/kg/day per os, Week 3, mean ± SEM",120 ± 11^3 mg/dL
same,decrease in serum total cholesterol concentration,"Male beagle dogs [1]; compound A-5 6.0 mg/kg/day, one week of treatment",19%
same,decrease in serum total cholesterol concentration,"Male beagle dogs [1]; compound A-5 6.0 mg/kg/day, three weeks of treatment",24%
same,% change from Week 0 in total serum cholesterol,"Male beagle dogs [1]; compound A-5 monotherapy 4.0 mg/kg/day, dosed Weeks 5-8, Week 5",(−12) %
same,TOTAL SERUM CHOLESTEROL,"Male beagle dogs [1]; compound A-5 monotherapy 4.0 mg/kg/day, dosed Weeks 5-8, Week 5, mean ± SEM",123 ± 9 mg/dL
same,% change from Week 0 in total serum cholesterol,"Male beagle dogs [1]; compound A-5 monotherapy 4.0 mg/kg/day, dosed Weeks 5-8, Week 6",(−18) %
same,TOTAL SERUM CHOLESTEROL,"Male beagle dogs [1]; compound A-5 monotherapy 4.0 mg/kg/day, dosed Weeks 5-8, Week 6, mean ± SEM",115 ± 8 [a] mg/dL
same,% change from Week 0 in total serum cholesterol,"Male beagle dogs [1]; compound A-5 monotherapy 4.0 mg/kg/day, dosed Weeks 5-8, Week 7",(−18) %
same,TOTAL SERUM CHOLESTEROL,"Male beagle dogs [1]; compound A-5 monotherapy 4.0 mg/kg/day, dosed Weeks 5-8, Week 7, mean ± SEM",114 ± 6 [a] mg/dL
same,% change from Week 0 in total serum cholesterol,"Male beagle dogs [1]; compound A-5 monotherapy 4.0 mg/kg/day, dosed Weeks 5-8, Week 8",(−23) %
same,TOTAL SERUM CHOLESTEROL,"Male beagle dogs [1]; compound A-5 monotherapy 4.0 mg/kg/day, dosed Weeks 5-8, Week 8, mean ± SEM",107 ±7 mg/dL and 107 ± 7 [a] mg/dL
same,% change from Week 0 in total serum cholesterol,"Male beagle dogs [1]; compound A-5 monotherapy group, dosing terminated after Week 8, Week 9",(−5) %
same,TOTAL SERUM CHOLESTEROL,"Male beagle dogs [1]; compound A-5 monotherapy group, dosing terminated after Week 8, Week 9, mean ± SEM",132 ± 7 mg/dL
same,% change from Week 0 in total serum cholesterol,"Male beagle dogs [1]; compound A-5 monotherapy group, dosing terminated after Week 8, Week 10",(−4) %
same,TOTAL SERUM CHOLESTEROL,"Male beagle dogs [1]; compound A-5 monotherapy group, dosing terminated after Week 8, Week 10, mean ± SEM",133 ± 10 mg/dL
same,% change from Week 0 in total serum cholesterol,"Male beagle dogs [1]; compound A-5 monotherapy group, dosing terminated after Week 8, Week 11",(−5) %
same,TOTAL SERUM CHOLESTEROL,"Male beagle dogs [1]; compound A-5 monotherapy group, dosing terminated after Week 8, Week 11, mean ± SEM",132 ± 9 mg/dL
same,% change from Week 0 in total serum cholesterol,"Male beagle dogs [1]; compound A-5 monotherapy group, dosing terminated after Week 8, Week 12",(−2) %
same,TOTAL SERUM CHOLESTEROL,"Male beagle dogs [1]; compound A-5 monotherapy group, dosing terminated after Week 8, Week 12, mean ± SEM",136 ± 9 mg/dL
same,% change from Week 0 in total serum cholesterol,"Male beagle dogs [1]; compound A-5 monotherapy group, dosing terminated after Week 8, Week 13",(−14) %
same,TOTAL SERUM CHOLESTEROL,"Male beagle dogs [1]; compound A-5 monotherapy group, dosing terminated after Week 8, Week 13, mean ± SEM",137 ± 9 mg/dL
same,"changes in body or fecal weights, stool consistency or general animal health","Male beagle dogs [2]; Example 1, compound A-5 0.22-6.0 mg/kg/day for three weeks",no significant changes
same,"changes in body or fecal weights, stool consistency or general animal health","Male beagle dogs [2]; Example 3 study (pravastatin 3-30 mg/kg/day, compound A-5 4.0 mg/kg/day, combination)",no significant changes
